{"source": "patent US12391697B2", "about": "“Condensed bi-heterocycles as inhibiting agents for Bruton's tyrosine kinase” (BIOGEN MA INC., priority 2019, dated 2025)", "note": "Structures can show the parent of a compound that is named as a salt."}
{"target": "BTK (Homo sapiens (Human), UniProt Q06187)", "sequence (Q06187 whole entry)": "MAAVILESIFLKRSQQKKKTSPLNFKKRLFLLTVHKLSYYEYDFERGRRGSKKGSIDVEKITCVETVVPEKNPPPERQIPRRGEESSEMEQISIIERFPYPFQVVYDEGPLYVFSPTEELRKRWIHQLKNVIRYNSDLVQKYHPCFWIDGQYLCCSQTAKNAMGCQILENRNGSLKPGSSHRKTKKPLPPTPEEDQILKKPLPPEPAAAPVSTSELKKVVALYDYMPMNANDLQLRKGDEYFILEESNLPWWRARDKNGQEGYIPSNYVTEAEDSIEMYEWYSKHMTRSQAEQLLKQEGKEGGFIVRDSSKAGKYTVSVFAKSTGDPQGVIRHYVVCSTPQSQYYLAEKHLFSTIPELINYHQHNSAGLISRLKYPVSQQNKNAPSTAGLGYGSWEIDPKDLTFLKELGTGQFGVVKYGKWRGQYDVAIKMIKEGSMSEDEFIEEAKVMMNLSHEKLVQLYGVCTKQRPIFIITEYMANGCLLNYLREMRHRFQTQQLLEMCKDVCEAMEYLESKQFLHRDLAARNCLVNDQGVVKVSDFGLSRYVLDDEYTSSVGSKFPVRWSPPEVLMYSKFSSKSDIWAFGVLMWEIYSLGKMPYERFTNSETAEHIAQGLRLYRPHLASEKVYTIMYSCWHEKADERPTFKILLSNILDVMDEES", "experiment": "In Vitro BTK Kinase Assay: Btk-PolyGAT-LS Assay", "format": "biochemical", "conditions": "active BTK enzyme 0.25 nM, ATP 10 μM, polyGAT 100 nM, 30 minutes", "method_in_brief": "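Recombinant BTK (0.25 nM) phosphorylating 100 nM polyGAT at 10 μM ATP in Tris-HCl pH 7.5 buffer with MgCl2, DTT, Triton X-100 and casein, 30 min, then EDTA stop.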", "units": {"IC50": "nM"}}
{"smiles": "CC=CC(=O)n1cc(-c2cc3c(-c4ccc(CNC(=O)c5noc(C(C)(C)C)n5)c(C)c4)ncnn3c2)cn1", "note": "[Example 147]", "IC50": "≤ 1"}
{"smiles": "Cc1cc(-c2ncnn3cc(-c4cccnc4)cc23)ccc1CNC(=O)c1noc(C(C)(C)C)n1", "note": "[Example 169]", "IC50": "≤ 1"}
{"smiles": "Cc1cc(-c2ncnn3cc(N4CC5CC(C4)N5C)cc23)ccc1CNC(=O)c1noc(C(C)(C)C)n1", "note": "[Example 148]", "IC50": "1 to 10"}
{"smiles": "Cc1cc(-c2ncnn3cc(-c4cnn(C(F)F)c4)cc23)ccc1CNC(=O)c1noc(C(C)(C)C)n1", "note": "[Example 107]", "IC50": "≤ 1"}
{"smiles": "CC(C)(C)c1coc(C(=O)NCc2ccc(-c3ncnn4cc(N5CCOCC5)cc34)cc2C(F)F)n1", "note": "[Example 222]", "IC50": "1 to 10"}
{"smiles": "CC(C)(C)n1cc(C(=O)NCc2ccc(-c3ncnn4cc(C5=CCOCC5)cc34)cc2C(F)F)cn1", "note": "[Example 208]", "IC50": "≤ 1"}
{"smiles": "Cc1cc(-c2ncnn3cc(-c4ccc(C#N)cc4)cc23)ccc1CNC(=O)c1noc(C(C)(C)C)n1", "note": "[Example 225]", "IC50": "≤ 1"}
{"smiles": "C[C@@H](NC(=O)c1nnc(C(C)(C)C)o1)c1ccc(-c2ncnn3cc(N4CCOCC4)cc23)cc1Cl", "note": "[Example 204]", "IC50": "1 to 10"}
{"smiles": "Cc1cc(-c2ncnn3cc(-c4cnn(C)c4)cc23)ccc1CNC(=O)c1cnn(C(C)(C)C)c1", "note": "[Example 167]", "IC50": "≤ 1"}
{"smiles": "Cc1cc(-c2ncnn3cc(-c4cnco4)cc23)ccc1CNC(=O)c1noc(C(C)(C)C)n1", "note": "[Example 110]", "IC50": "≤ 1"}
{"smiles": "Cc1cc(-c2ncnn3cc(N4C[C@@H](F)[C@@H](F)C4)cc23)ccc1CNC(=O)c1noc(C(C)(C)C)n1", "note": "[Example 122]", "IC50": "≤ 1"}
{"smiles": "CC(C)(C)n1cc(C(=O)NCc2ccc(-c3ncnn4cc(N5CCOCC5)cc34)c(F)c2C2CC2)nn1", "note": "[Example 164]", "IC50": "1 to 10"}
{"smiles": "Cc1cc(-c2ncnn3cc(-c4ccc(F)cc4)cc23)ccc1CNC(=O)c1noc(C(C)(C)C)n1", "note": "[Example 224]", "IC50": "≤ 1"}
{"smiles": "Cc1cc(-c2ccnc3cc(N4CCOCC4)nn23)ccc1CNC(=O)c1noc(C(C)(C)C)n1", "note": "[Example 22, 5-(tert-butyl)-N-(2-methyl-4-(2-morpholinopyrazolo[1,5-a]pyrimidin-7-yl)benzyl)-1,2,4-oxadiazole-3-carboxamide]", "IC50": "1 to 10"}
{"smiles": "CC(C)(C)c1nnc(C(=O)NCc2ccc(-c3ncnn4cc(N5CCOCC5)cc34)cc2Cl)o1", "note": "[Example 161]", "IC50": "1 to 10"}
{"smiles": "Cc1c(CNC(=O)c2noc(C(C)(C)C)n2)cc(F)c(-c2ncnn3cccc23)c1F", "note": "[Example 63, 5-(tert-butyl)-N-(3,5-difluoro-2-methyl-4-(pyrrolo[2,1-f][1,2,4]triazin-4-yl)benzyl)-1,2,4-oxadiazole-3-carboxamide hydrochloride]", "IC50": "1 to 10"}
{"smiles": "Cc1cc(-c2ncnn3cc(N4CCOC(C)(C)C4)cc23)ccc1CNC(=O)c1noc(C(C)(C)C)n1", "note": "[Example 78, 5-(tert-butyl)-N-(4-(6-(2,2-dimethylmorpholino)pyrrolo[2,1-f][1,2,4]triazin-4-yl)-2-methylbenzyl)-1,2,4-oxadiazole-3-carboxamide hydrochloride]", "IC50": "≤ 1"}
{"smiles": "Cn1cc(-c2cc3c(-c4ccc(CNC(=O)c5cnn(C(C)(C)C)c5)c(C(F)F)c4)ncnn3c2)cn1", "note": "[Example 212]", "IC50": "≤ 1"}
{"smiles": "Cn1cc(-c2cc3c(-c4ccc(CNC(=O)c5nc(C(C)(C)C)no5)c(CC(F)F)c4)ncnn3c2)cn1", "note": "[Example 207]", "IC50": "≤ 1"}
{"smiles": "Cc1cc(-c2ncnn3cc(-c4cnn(C5COC5)c4)cc23)ccc1CNC(=O)c1noc(C(C)(C)C)n1", "note": "[Example 104]", "IC50": "≤ 1"}
{"smiles": "Cn1cc(-c2cc3c(-c4ccc(CNC(=O)c5nc(C(C)(C)C)no5)c(CC(F)F)c4F)ncnn3c2)cn1", "note": "[Example 66, 3-(tert-butyl)-N-(2-(2,2-difluoroethyl)-3-fluoro-4-(6-(1-methyl-1H-pyrazol-4-yl)pyrrolo[2,1-f][1,2,4]triazin-4-yl)benzyl)-1,2,4-oxadiazole-5-carboxamide hydrochloride]", "IC50": "≤ 1"}
{"smiles": "Cc1cc(-c2ncnn3cc(C(=O)N(C)C)cc23)ccc1CNC(=O)c1noc(C(C)(C)C)n1", "note": "[Example 67, 5-(tert-butyl)-N-(4-(6-(dimethylcarbamoyl)pyrrolo[2,1-f][1,2,4]triazin-4-yl)-2-methylbenzyl)-1,2,4-oxadiazole-3-carboxamide hydrochloride]", "IC50": "≤ 1"}
{"smiles": "Cc1cc(-c2ncnn3cc(-c4cnn(C)c4C)cc23)ccc1CNC(=O)c1coc(C(C)(C)C)n1", "note": "[Example 130]", "IC50": "≤ 1"}
{"smiles": "Cn1cc(-c2cc3c(-c4ccc(CNC(=O)c5cn(C(C)(C)C)nn5)c(C(F)F)c4)ncnn3c2)cn1", "note": "[Example 64, 1-(tert-butyl)-N-(2-(difluoromethyl)-4-(6-(1-methyl-1H-pyrazol-4-yl)pyrrolo[2,1-f][1,2,4]triazin-4-yl)benzyl)-1H-1,2,3-triazole-4-carboxamide hydrochloride]", "IC50": "≤ 1"}
{"smiles": "Cc1cc(-c2ncnn3cnc(C)c23)ccc1CNC(=O)c1noc(C(C)(C)C)n1", "note": "[Example 48]", "IC50": "1 to 10"}
{"smiles": "Cc1cc(-c2ncnn3cc(N4CCN(C)C(C)C4)cc23)ccc1CNC(=O)c1nnn(C(C)(C)C)n1", "note": "(centres unmarked) [Example 98]", "IC50": "≤ 1"}
{"smiles": "Cc1cc(-c2ncnn3cc(C4=CCOCC4)cc23)ccc1CNC(=O)c1nc(C(C)(C)C)no1", "note": "[Example 103]", "IC50": "≤ 1"}
{"smiles": "COCCN(C)c1cc2c(-c3ccc(CNC(=O)c4noc(C(C)(C)C)n4)c(C)c3)ncnn2c1", "note": "[Example 174]", "IC50": "≤ 1"}
{"smiles": "CC(C)(C)c1noc(C(=O)NCc2cc(F)c(-c3ncnn4cccc34)cc2Cl)n1", "note": "[Example 133]", "IC50": "1 to 10"}
{"smiles": "Cc1cc(-c2ncnn3cc(N4CCO[C@H](C)C4)cc23)ccc1CNC(=O)c1nc(C(C)(C)C)no1", "note": "(single isomer, unassigned) [Example 137]", "IC50": "≤ 1"}
{"smiles": "Cc1c(CNC(=O)c2noc(C(C)(C)C)n2)ccc(-c2ccnc3cc(N4CCOCC4)nn23)c1F", "note": "[Example 84]", "IC50": "1 to 10"}
{"smiles": "Cc1cc(-c2ncnn3cc(-c4cnn(CC(F)F)c4)cc23)ccc1CNC(=O)c1cnn(C(C)(C)C)c1", "note": "[Example 145]", "IC50": "≤ 1"}
{"smiles": "Cc1cc(-c2ncnn3cccc23)ccc1CNC(=O)c1ccn(C(C)(C)C)n1", "note": "[Example 182]", "IC50": "> 10"}
{"smiles": "Cc1cc(-c2ncnn3cc(N4C[C@@H]5C[C@H]4CN5C)cc23)ccc1CNC(=O)c1noc(C(C)(C)C)n1", "note": "[Example 93]", "IC50": "> 10"}
{"smiles": "Cc1cc(-c2ncnn3cc(N4CCN(C)C[C@H]4C)cc23)ccc1CNC(=O)c1noc(C(C)(C)C)n1", "note": "[Example 70, (R)-5-(tert-butyl)-N-(4-(6-(2,4-dimethylpiperazin-1-yl)pyrrolo[2,1-f][1,2,4]triazin-4-yl)-2-methylbenzyl)-1,2,4-oxadiazole-3-carboxamide trifluoroacetate]", "IC50": "1 to 10"}
{"smiles": "Cc1cc(-c2ncnn3cc(N4CCOCC4)cc23)ccc1CNC(=O)c1nc(C(C)(C)C)no1", "note": "[Example 105]", "IC50": "≤ 1"}
{"smiles": "COc1c(CNC(=O)c2nnc(C(C)(C)C)o2)ccc(-c2ncnn3cc(-c4cnn(C)c4)cc23)c1F", "note": "[Example 201]", "IC50": "1 to 10"}
{"smiles": "Cc1c(CNC(=O)c2cnn(C(C)(C)C)c2)ccc(-c2ncnn3cc(N4CCOCC4)cc23)c1F", "note": "[Example 88]", "IC50": "≤ 1"}
{"smiles": "Cc1cc(-c2ncnn3cccc23)ccc1CNC(=O)c1nnn(C(C)(C)C)n1", "note": "[Example 214]", "IC50": "1 to 10"}
{"smiles": "Cc1cc(-c2ncnn3cc(C4COC4)cc23)ccc1CNC(=O)c1noc(C(C)(C)C)n1", "note": "[Example 71, 5-(tert-butyl)-N-(2-methyl-4-(6-(oxetan-3-yl)pyrrolo[2,1-f][1,2,4]triazin-4-yl)benzyl)-1,2,4-oxadiazole-3-carboxamide trifluoroacetate]", "IC50": "> 10"}
{"smiles": "Cc1cc(-c2ncnn3cc(C4=CCOCC4)cc23)ccc1CNC(=O)c1ccn(C(C)(C)C)n1", "note": "(single isomer, unassigned) [Example 127]", "IC50": "≤ 1"}
{"smiles": "C#Cc1cc2c(-c3ccc(CNC(=O)c4noc(C(C)(C)C)n4)c(C)c3)ncnn2c1", "note": "[Example 76, 5-(tert-butyl)-N-(4-(6-ethynylpyrrolo[2,1-f][1,2,4]triazin-4-yl)-2-methylbenzyl)-1,2,4-oxadiazole-3-carboxamide trifluoroacetate]", "IC50": "1 to 10"}
{"smiles": "COc1cc(-c2ncnn3cc(-c4cnn(C)c4)cc23)ccc1CNC(=O)c1nc(C(C)(C)C)no1", "note": "[Example 189]", "IC50": "≤ 1"}
{"smiles": "CO[C@H]1CCN(c2cc3c(-c4ccc(CNC(=O)c5nc(C(C)(C)C)no5)c(C)c4)ncnn3c2)C1", "note": "(single isomer, unassigned) [Example 23]", "IC50": "≤ 1"}
{"smiles": "CC(C)(C)c1noc(C(=O)NCc2ccc(-c3ncnn4cc(N5CCOCC5)cc34)cc2CC(F)F)n1", "note": "[Example 65, 3-(tert-butyl)-N-(2-(2,2-difluoroethyl)-4-(6-morpholinopyrrolo[2,1-f][1,2,4]triazin-4-yl)benzyl)-1,2,4-oxadiazole-5-carboxamide hydrochloride]", "IC50": "≤ 1"}
{"smiles": "CC(C)(C)n1ccc(C(=O)NCc2ccc(-c3ncnn4cc(N5CCOCC5)cc34)c(F)c2Cl)n1", "note": "[Example 158]", "IC50": "1 to 10"}
{"smiles": "CC(C)(C)c1noc(C(=O)NCc2ccc(-c3ncnn4cccc34)c(F)c2C2CC2)n1", "note": "[Example 153]", "IC50": "1 to 10"}
{"smiles": "Cc1cc(-c2ncnn3cc(N4CCOCC4)cc23)ccc1CNC(=O)c1coc(C(C)(C)C)n1", "note": "[Example 176]", "IC50": "1 to 10"}
{"smiles": "Cc1cc(-c2ncnn3cc(N4CCO[C@@H](C)C4)cc23)ccc1CNC(=O)c1coc(C(C)(C)C)n1", "note": "(single isomer, unassigned) [Example 144]", "IC50": "≤ 1"}
{"smiles": "CC(C)(C)c1nc(C(=O)NCc2ccc(-c3ncnn4cccc34)cc2Cl)no1", "note": "[Example 178]", "IC50": "1 to 10"}
